Measured values from PMC12647017, “Discovery and optimization of a synthetic small protein domain targeting antibodies” (Frontiers in Bioengineering and Biotechnology, 2025).

Tested on: human polyclonal IgG
Assay: Screening ELISA of phage display clones (crude extracts) against human polyclonal IgG
Format: binding
Details: crude extract of clones from 6th panning round, 1 µg/well human polyclonal IgG, blocked 3% (w/v) BSA in TBS, 50 µL extract 1 h at 37 °C, Anti-HA tag-HRP, ABTS, Abs405nm
Procedure: The biopanning of the previously developed WWp5_4 library ([Dias et al., 2025]) (Figures 1A,B) against human polyclonal IgG was performed for six rounds, after which an enrichment of ligands was observed (Supplementary Table S3). To assess the binding of each clone to the target, 192 clones were selected and expressed at small scale in 96-deep well blocks, following conditions previously optimised. After cell lysis, the supernatant containing the soluble fraction was used for ELISA assays. The results in Figure 1C illustrate the difference in the absorbance profile of the screened ligands. […] From these 26, only 21 presented high quality for reliable sequencing results. The sequence alignment and diversity of the different binders is represented in Table 1 and Figure 2A.
Small Scale Protein Expression and screening ELISA: From the output of the 6th round of panning, 94 isolated colonies were peaked into two sterile 96-well deep well 2mL round-bottom plates and grown with 200 µL of LB with ampicillin, 125 rpm, 37 °C, overnight (master plates). The following day, to one of the master plates was added glycerol to achieve a final concentration of 15% and was stored at -80 °C. Regarding the other master plate, 12 µL of this culture was added to another sterile 96-well deep well 2 mL round-bottom plate with 1.2 mL of LB with ampicillin and was grown at 37 °C, 125 rpm until OD600nm achieved 0.5-0.6. After this, protein expression was induced with 1 mM IPTG and continued incubation with the previous conditions. The following day, the cultures were sonicated for 30 minutes in ice-water bath and centrifuged for 10 minutes at 2500 x g. The supernatant was collected and transferred to a new microplate to be used in the screening for the ELISA (crude extract). For the ELISA, three microplates were tested: A) Sample binding plate; B) Negative control plate; C) Expression plate. On the sample binding plate, 1 µg/well of human polyclonal IgG was immobilized on the plate at 4 °C, overnight. On the following day, the target was removed, and the wells were washed once with TBS, then the plate was blocked with 300 µL 3% (w/v) BSA in TBS for 1 hour at 37 °C. After this, the wells were washed once with TBS, and were then incubated with 50 µL of crude extract (containing WW domain) for 1 hour at 37 °C. The plate was then washed 5 times with TBS-T, and then incubated with 100 µL of the Anti-HA tag-HRP conjugated antibody (diluted 1:1000) for 1 hour at 37 °C. The plate was then washed once with TBS-T and 4 times with TBS, and then incubated with the substrate ABTS for 1 hour at the dark at 37 °C. The results were then analysed in a microplate reader (TECAN) and the Abs405nm was then measured.
For the Negative control plate the protocol was the same as for the Binding microplate, except for the target immobilization. Instead of having IgG, only coating buffer was added. This plate allows to detect clones that unspecific bind to BSA present in the Blocking Buffer. For the Expression plate the protocol started at the step of incubation with the crude extract, and from there the steps were the same as the Binding microplate. This plate allows to detect clone’s basal expression level.

SMGLPPGWDEYKT RRFKL GKTYYYNH HILS KTSTWTDPRMSS [Clone E6]
ELISA signal: High (high binders (Abs>0.4))
